Measurements taken from PubChem BioAssay (NCI).
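Exposure lasted 48 hours, with cells grown in 96-well plates and compounds tested at five concentrations. Definition used: TGI = concentration required for complete inhibition of growth.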

Tested on: MOLT-4 leukemia
Assay: NCI tumour cell line growth inhibition, 48 h

`O=P(O)(O)CCP(=O)(O)O` and `Nc1c(C(=O)O)nnc2ccc(Cl)cc12` cannot be ordered by TGI: > 100 µM for the first, > 100 µM for the second.

Going from `O=c1sc2ccccc2n1CC1CS1` (centres undefined) to `CN(C)c1ccc(/C=c2/c3ccccc3n3c2c2c([n+]3C)CCCC2)cc1`, the TGI falls from > 100 µM to 1.59 µM.

`O=C1c2cccc3c2C(=O)c2c(cccc21)OCCOCCOCCOCCO3` and `CC1(C)OC(C(=O)Nc2cc3c4ccccc4ccc3c3ccccc23)C(C(=O)N2CCCCC2)O1` (centres undefined) cannot be ordered by TGI: > 100 µM for the first, > 23.9 µM for the second.

First: C=CCc1c(O)c2c(c3oc(=O)cc(C)c13)CC(C)O2 (centres undefined)
Second: CCN(CC)CCNc1ccc2nnn3c4ccc(OCCN(CC)CC)cc4c(=O)c1c23
The TGI of the first is higher: > 100 µM for the first, 39 µM for the second.

Compared with `CCOc1ncn(-c2ccc(NC(=S)Nc3ncccn3)cc2)n1`, `COc1cc2c(cc1OC)C(CC1=C(c3ccccc3)CN3CCc4cc(OC)c(OC)cc4C3C1)NCC2` (centres undefined) is 1.9-fold lower in TGI: 57.3 µM for the first, 29.5 µM for the second.

Tested on: NCI-H23 lung
Assay: NCI tumour cell line growth inhibition, 48 h

`CCCC(=O)OCC1OC(n2ccc(N)nc2=O)C(OC(=O)CCC)C1OC(=O)CCC` (centres undefined) and `CC(=O)OC1/C=C(\C)C(OC(C)=O)C/C=C(/C)CCC2C(/C=C/C1=O)C2(C)C` (centres undefined) cannot be ordered by TGI: > 100 µM for the first, > 100 µM for the second.

Compared with `O=S(=O)(O)CCCc1cccc2ccccc12`, `Cc1n(Cc2ccccc2)c2c([n+]1C)C(=O)c1ccccc1C2=O` is lower in TGI: > 100 µM for the first, 0.177 µM for the second.

Compared with `NC(CCCCCP(=O)(c1ccccc1)C1C=CC=CC1)C(=O)O` (centres undefined), `CC(C)Cc1ccc(C(C)C(=O)N2CCN(/C=C/c3ccccc3)CC2)cc1` (centres undefined) is lower in TGI: > 100 µM for the first, 27.1 µM for the second.

Compared with `COc1ccc(/C=C2\CCNC2=O)cc1`, `CN(C)c1ccc(/C=c2/c3ccccc3n3c2c2c([n+]3C)CCCC2)cc1` is lower in TGI: > 100 µM for the first, 6.49 µM for the second.

First: CO/N=C(\C)c1ccc(Nc2nc3ccccc3c3occc23)cc1
Second: CC(=O)Nc1ccc(N=Nc2c(O)c(S(=O)(=O)O)cc3cc(S(=O)(=O)O)ccc23)cc1
The TGI of the first is lower: 28.9 µM for the first, > 100 µM for the second.

`O=c1cc[nH]c(=O)[nH]1` and `Nc1c(C(=O)O)nnc2ccc(Cl)cc12` cannot be ordered by TGI: > 315 µM for the first, > 100 µM for the second.

Going from `O=P(O)(O)CCP(=O)(O)O` to `O=C(O)C(O)C(O)C(O)C(O)c1nc2ccccc2s1` (centres undefined), the TGI falls from > 100 µM to 66.1 µM.

`O=C1c2cccc3c2C(=O)c2c(cccc21)OCCOCCOCCOCCO3` and `CC1(C)OC(C(=O)Nc2cc3c4ccccc4ccc3c3ccccc23)C(C(=O)N2CCCCC2)O1` (centres undefined) cannot be ordered by TGI: > 100 µM for the first, > 100 µM for the second.

`C=CCc1c(O)c2c(c3oc(=O)cc(C)c13)CC(C)O2` (centres undefined) and `CCN(CC)CCNc1ccc2nnn3c4ccc(OCCN(CC)CC)cc4c(=O)c1c23` cannot be ordered by TGI: > 100 µM for the first, > 100 µM for the second.

Compared with `CCOc1ncn(-c2ccc(NC(=S)Nc3ncccn3)cc2)n1`, `COc1cc2c(cc1OC)C(CC1=C(c3ccccc3)CN3CCc4cc(OC)c(OC)cc4C3C1)NCC2` (centres undefined) is lower in TGI: > 100 µM for the first, 52.8 µM for the second.

Tested on: RPMI-8226 leukemia
Assay: NCI tumour cell line growth inhibition, 48 h

`CCCC(=O)OCC1OC(n2ccc(N)nc2=O)C(OC(=O)CCC)C1OC(=O)CCC` (centres undefined) and `CCN(CC)CCNc1ccc2nnn3c4ccc(OCCN(CC)CC)cc4c(=O)c1c23` cannot be ordered by TGI: > 100 µM for the first, > 100 µM for the second.

First: O=S(=O)(O)CCCc1cccc2ccccc12
Second: Cc1n(Cc2ccccc2)c2c([n+]1C)C(=O)c1ccccc1C2=O
The TGI of the first is higher: > 100 µM for the first, 39.1 µM for the second.

First: NC(CCCCCP(=O)(c1ccccc1)C1C=CC=CC1)C(=O)O (centres undefined)
Second: CC(C)Cc1ccc(C(C)C(=O)N2CCN(/C=C/c3ccccc3)CC2)cc1 (centres undefined)
The TGI of the first is higher: > 100 µM for the first, 25.6 µM for the second.

First: COc1ccc(/C=C2\CCNC2=O)cc1
Second: CN(C)c1ccc(/C=c2/c3ccccc3n3c2c2c([n+]3C)CCCC2)cc1
The TGI of the first is higher: > 100 µM for the first, 0.656 µM for the second.

First: CO/N=C(\C)c1ccc(Nc2nc3ccccc3c3occc23)cc1
Second: CC(=O)Nc1ccc(N=Nc2c(O)c(S(=O)(=O)O)cc3cc(S(=O)(=O)O)ccc23)cc1
The TGI of the first is lower: 43.4 µM for the first, > 100 µM for the second.

`O=c1cc[nH]c(=O)[nH]1` and `O=c1sc2ccccc2n1CC1CS1` (centres undefined) cannot be ordered by TGI: > 1000 µM for the first, > 100 µM for the second.

Compared with `O=P(O)(O)CCP(=O)(O)O`, `O=C(O)C(O)C(O)C(O)C(O)c1nc2ccccc2s1` (centres undefined) is lower in TGI: > 100 µM for the first, 68.8 µM for the second.

`O=C1c2cccc3c2C(=O)c2c(cccc21)OCCOCCOCCOCCO3` and `CC1(C)OC(C(=O)Nc2cc3c4ccccc4ccc3c3ccccc23)C(C(=O)N2CCCCC2)O1` (centres undefined) cannot be ordered by TGI: > 100 µM for the first, > 43.2 µM for the second.

Compared with `C=CCc1c(O)c2c(c3oc(=O)cc(C)c13)CC(C)O2` (centres undefined), `COc1cc2c(cc1OC)C(CC1=C(c3ccccc3)CN3CCc4cc(OC)c(OC)cc4C3C1)NCC2` (centres undefined) is lower in TGI: > 100 µM for the first, 28.8 µM for the second.

`CCOc1ncn(-c2ccc(NC(=S)Nc3ncccn3)cc2)n1` and `Nc1c(C(=O)O)nnc2ccc(Cl)cc12` cannot be ordered by TGI: > 100 µM for the first, > 100 µM for the second.

Tested on: RXF 393 renal
Assay: NCI tumour cell line growth inhibition, 48 h

`CCCC(=O)OCC1OC(n2ccc(N)nc2=O)C(OC(=O)CCC)C1OC(=O)CCC` (centres undefined) and `CC(=O)OC1/C=C(\C)C(OC(C)=O)C/C=C(/C)CCC2C(/C=C/C1=O)C2(C)C` (centres undefined) cannot be ordered by TGI: > 100 µM for the first, > 100 µM for the second.

Compared with `O=S(=O)(O)CCCc1cccc2ccccc12`, `Cc1n(Cc2ccccc2)c2c([n+]1C)C(=O)c1ccccc1C2=O` is lower in TGI: > 100 µM for the first, 2.42 µM for the second.

First: NC(CCCCCP(=O)(c1ccccc1)C1C=CC=CC1)C(=O)O (centres undefined)
Second: CC(C)Cc1ccc(C(C)C(=O)N2CCN(/C=C/c3ccccc3)CC2)cc1 (centres undefined)
The TGI of the first is higher: > 100 µM for the first, 30.8 µM for the second.

`O=c1cc[nH]c(=O)[nH]1` and `O=c1sc2ccccc2n1CC1CS1` (centres undefined) cannot be ordered by TGI: > 889 µM for the first, > 100 µM for the second.

Going from `O=P(O)(O)CCP(=O)(O)O` to `O=C(O)C(O)C(O)C(O)C(O)c1nc2ccccc2s1` (centres undefined), the TGI falls from > 100 µM to 32.6 µM.

`O=C1c2cccc3c2C(=O)c2c(cccc21)OCCOCCOCCOCCO3` and `CC1(C)OC(C(=O)Nc2cc3c4ccccc4ccc3c3ccccc23)C(C(=O)N2CCCCC2)O1` (centres undefined) cannot be ordered by TGI: > 100 µM for the first, > 27.7 µM for the second.

`C=CCc1c(O)c2c(c3oc(=O)cc(C)c13)CC(C)O2` (centres undefined) and `CC(=O)Nc1ccc(N=Nc2c(O)c(S(=O)(=O)O)cc3cc(S(=O)(=O)O)ccc23)cc1` cannot be ordered by TGI: > 100 µM for the first, > 100 µM for the second.

Going from `CN(C)c1ccc(/C=c2/c3ccccc3n3c2c2c([n+]3C)CCCC2)cc1` to `COc1cc2c(cc1OC)C(CC1=C(c3ccccc3)CN3CCc4cc(OC)c(OC)cc4C3C1)NCC2` (centres undefined), the TGI rises from 0.616 µM to 17.6 µM (29-fold).

`CCN(CC)CCNc1ccc2nnn3c4ccc(OCCN(CC)CC)cc4c(=O)c1c23` was tested, and the TGI was > 100 µM.

Tested on: SF-295 CNS
Assay: NCI tumour cell line growth inhibition, 48 h

`CCCC(=O)OCC1OC(n2ccc(N)nc2=O)C(OC(=O)CCC)C1OC(=O)CCC` (centres undefined) and `CC(=O)OC1/C=C(\C)C(OC(C)=O)C/C=C(/C)CCC2C(/C=C/C1=O)C2(C)C` (centres undefined) cannot be ordered by TGI: > 100 µM for the first, > 100 µM for the second.

Compared with `O=S(=O)(O)CCCc1cccc2ccccc12`, `Cc1n(Cc2ccccc2)c2c([n+]1C)C(=O)c1ccccc1C2=O` is lower in TGI: > 100 µM for the first, 0.554 µM for the second.

First: NC(CCCCCP(=O)(c1ccccc1)C1C=CC=CC1)C(=O)O (centres undefined)
Second: CC(C)Cc1ccc(C(C)C(=O)N2CCN(/C=C/c3ccccc3)CC2)cc1 (centres undefined)
The TGI of the first is higher: > 100 µM for the first, 32.2 µM for the second.

`COc1ccc(/C=C2\CCNC2=O)cc1` and `O=c1cc[nH]c(=O)[nH]1` cannot be ordered by TGI: > 100 µM for the first, > 1000 µM for the second.

Going from `CO/N=C(\C)c1ccc(Nc2nc3ccccc3c3occc23)cc1` to `O=C1c2cccc3c2C(=O)c2c(cccc21)OCCOCCOCCOCCO3`, the TGI rises from 31.5 µM to > 100 µM.

`O=P(O)(O)CCP(=O)(O)O` and `O=c1sc2ccccc2n1CC1CS1` (centres undefined) cannot be ordered by TGI: > 100 µM for the first, > 100 µM for the second.
